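Tested at 5 concentrations; 48 h exposure; 96-well plates; endpoints linearly interpolated, else capped at highest concentration. At the GI50, growth is halved.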 Active and inactive are the calls of the source. Cut-off read from the data, not from the text of the source: active = GI50 up to about 1.1 µM and inactive = higher.
Experiments:
Experiment in all cases: NCI anticancer screen, dose series, 48 h
786-0 = system: 786-0
A498 = system: A498
A549 = system: A549
ACHN = system: ACHN
BT-549 = system: BT-549
CAKI-1 = system: CAKI-1
CCRF-CEM = system: CCRF-CEM
COLO 205 = system: COLO 205
DU-145 = system: DU-145
HCT-116 = system: HCT-116
HCT-15 = system: HCT-15
HL-60 = system: HL-60
HOP-62 = system: HOP-62
HT-29 = system: HT-29
Hs-578T = system: Hs-578T
IGROV-1 = system: IGROV-1
K562 = system: K562
KM12 = system: KM12
LOX IMVI = system: LOX IMVI
M14 = system: M14
MCF7 = system: MCF7
MDA-MB-231 = system: MDA-MB-231
MDA-MB-435 = system: MDA-MB-435
MDA-N = system: MDA-N
MOLT-4 = system: MOLT-4
Malme-3M = system: Malme-3M
NCI-H226 = system: NCI-H226
NCI-H23 = system: NCI-H23
NCI-H460 = system: NCI-H460
NCI-H522 = system: NCI-H522
NCI/ADR-RES = system: NCI/ADR-RES
OVCAR-3 = system: OVCAR-3
OVCAR-5 = system: OVCAR-5
OVCAR-8 = system: OVCAR-8
PC-3 = system: PC-3
RPMI-8226 = system: RPMI-8226
RXF 393 = system: RXF 393
SF-268 = system: SF-268
SF-295 = system: SF-295
SF-539 = system: SF-539
SK-MEL-28 = system: SK-MEL-28
SK-MEL-2 = system: SK-MEL-2
SK-MEL-5 = system: SK-MEL-5
SK-OV-3 = system: SK-OV-3
SN12C = system: SN12C
SNB-19 = system: SNB-19
SNB-75 = system: SNB-75
SW-620 = system: SW-620
T47D = system: T47D
TK-10 = system: TK-10
U-251 = system: U-251
UACC-257 = system: UACC-257
UACC-62 = system: UACC-62
UO-31 = system: UO-31
EKVX = system: EKVX
HCC 2998 = system: HCC 2998
HOP-92 = system: HOP-92
OVCAR-4 = system: OVCAR-4

In the case of `CC1N(C)C(=O)OC12CCN(CCCC(=O)c1ccc(F)cc1)CC2` (stereo not given), the GI50 (786-0) is reported as > 100 µM (inactive), the GI50 (A498) is reported as > 100 µM (inactive) and the GI50 (A549) is reported as > 100 µM (inactive). The GI50 (ACHN) was > 100 µM (inactive), the GI50 (BT-549) was > 100 µM (inactive) and the GI50 (CAKI-1) was > 100 µM (inactive). The GI50 (CCRF-CEM) was > 100 µM (inactive), the GI50 (COLO 205) was > 100 µM (inactive) and the GI50 (DU-145) was > 100 µM (inactive). The GI50 (HCT-116) was > 100 µM (inactive), the GI50 (HCT-15) was greater than 100 µM and the GI50 (HL-60) was > 100 µM (inactive). The GI50 (HOP-62) was > 100 µM (inactive), the GI50 (HT-29) was > 100 µM (inactive) and the GI50 (Hs-578T) was > 100 µM (inactive). For the same molecule, the GI50 (IGROV-1) was > 100 µM (inactive), the GI50 (K562) was > 100 µM (inactive) and the GI50 (KM12) was > 100 µM (inactive). For the same molecule, the GI50 (LOX IMVI) was > 100 µM (inactive), the GI50 (M14) was > 100 µM (inactive) and the GI50 (MCF7) was > 100 µM (inactive). For the same molecule, the GI50 (MDA-MB-231) was > 100 µM (inactive), the GI50 (MDA-MB-435) was > 100 µM (inactive) and the GI50 (MDA-N) was > 100 µM (inactive). For the same molecule, the GI50 (MOLT-4) was > 100 µM (inactive), the GI50 (Malme-3M) was > 100 µM (inactive) and the GI50 (NCI-H226) was > 100 µM (inactive). For the same molecule, the GI50 (NCI-H23) was > 100 µM (inactive), the GI50 (NCI-H460) was > 100 µM (inactive) and the GI50 (NCI-H522) was > 100 µM (inactive). The GI50 (NCI/ADR-RES) was > 100 µM (inactive), the GI50 (OVCAR-3) was > 100 µM (inactive) and the GI50 (OVCAR-5) was > 100 µM (inactive). For the same molecule, the GI50 (OVCAR-8) was > 100 µM (inactive), the GI50 (PC-3) was > 100 µM (inactive) and the GI50 (RPMI-8226) was > 100 µM (inactive). The GI50 (RXF 393) was > 100 µM (inactive), the GI50 (SF-268) was > 100 µM (inactive) and the GI50 (SF-295) was > 100 µM (inactive). For the same molecule, the GI50 (SF-539) was > 100 µM (inactive), the GI50 (SK-MEL-28) was > 100 µM (inactive) and the GI50 (SK-MEL-2) was > 100 µM (inactive). For the same molecule, the GI50 (SK-MEL-5) was > 100 µM (inactive), the GI50 (SK-OV-3) was > 100 µM (inactive) and the GI50 (SN12C) was > 100 µM (inactive). The GI50 (SNB-19) was > 100 µM (inactive), the GI50 (SNB-75) was > 100 µM (inactive) and the GI50 (SW-620) was > 100 µM (inactive). The GI50 (T47D) was > 100 µM (inactive), the GI50 (TK-10) was > 100 µM (inactive) and the GI50 (U-251) was > 100 µM (inactive). For the same molecule, the GI50 (UACC-257) was > 100 µM (inactive), the GI50 (UACC-62) was > 100 µM (inactive) and the GI50 (UO-31) was > 100 µM (inactive).
In the case of `Nc1cccc(OCC2CCCN3CCCCC23)c1` (stereo not given), the GI50 (786-0) is reported as 15.6 µM (inactive), the GI50 (A498) is reported as 14.4 µM (inactive) and the GI50 (A549) is reported as 21.4 µM (inactive). The GI50 (ACHN) was 18 µM (inactive), the GI50 (BT-549) was 17.1 µM (inactive) and the GI50 (CAKI-1) was 17.6 µM (inactive). For the same molecule, the GI50 (CCRF-CEM) was 15.2 µM (inactive), the GI50 (COLO 205) was 19.5 µM (inactive) and the GI50 (DU-145) was 17.5 µM (inactive). The GI50 (EKVX) was 17.2 µM (inactive), the GI50 (HCC 2998) was 13.7 µM (inactive) and the GI50 (HCT-116) was 16.3 µM (inactive). The GI50 (HCT-15) was 17.5 µM, the GI50 (HL-60) was 20.1 µM (inactive) and the GI50 (HOP-62) was 16.2 µM (inactive). The GI50 (HOP-92) was 28.5 µM (inactive), the GI50 (HT-29) was 12.6 µM (inactive) and the GI50 (Hs-578T) was 16.7 µM (inactive). For the same molecule, the GI50 (K562) was 22 µM (inactive), the GI50 (KM12) was 17.6 µM (inactive) and the GI50 (LOX IMVI) was 15.8 µM (inactive). For the same molecule, the GI50 (M14) was 20 µM (inactive), the GI50 (MCF7) was 19.5 µM (inactive) and the GI50 (MDA-MB-231) was 17.2 µM (inactive). The GI50 (MDA-MB-435) was 22.5 µM (inactive), the GI50 (MDA-N) was 16 µM (inactive) and the GI50 (MOLT-4) was 20.9 µM (inactive). The GI50 (Malme-3M) was 23.5 µM (inactive), the GI50 (NCI-H226) was 41.7 µM (inactive) and the GI50 (NCI-H23) was 17.7 µM (inactive). The GI50 (NCI-H460) was 19 µM (inactive), the GI50 (NCI/ADR-RES) was 19.3 µM (inactive) and the GI50 (OVCAR-3) was 16.9 µM (inactive). For the same molecule, the GI50 (OVCAR-4) was 23.2 µM (inactive), the GI50 (OVCAR-5) was 17.7 µM (inactive) and the GI50 (OVCAR-8) was 18.7 µM (inactive). The GI50 (PC-3) was 16.9 µM (inactive), the GI50 (RPMI-8226) was 15.2 µM (inactive) and the GI50 (RXF 393) was 20.5 µM (inactive). The GI50 (SF-268) was 20.1 µM (inactive), the GI50 (SF-295) was 17.8 µM (inactive) and the GI50 (SF-539) was 18.3 µM (inactive). The GI50 (SK-MEL-28) was 19.1 µM (inactive), the GI50 (SK-MEL-2) was 20.1 µM (inactive) and the GI50 (SK-MEL-5) was 18.9 µM (inactive). The GI50 (SK-OV-3) was 72.9 µM (inactive), the GI50 (SN12C) was 16.7 µM (inactive) and the GI50 (SNB-19) was 17.9 µM (inactive). The GI50 (SNB-75) was 16.7 µM (inactive), the GI50 (SW-620) was 21.3 µM (inactive) and the GI50 (T47D) was 17.8 µM (inactive). For the same molecule, the GI50 (TK-10) was 17.4 µM (inactive), the GI50 (U-251) was 24.4 µM (inactive) and the GI50 (UACC-257) was 19 µM (inactive). The GI50 (UACC-62) was 17.1 µM (inactive) and the GI50 (UO-31) was 27.2 µM (inactive).

— ChEMBL document CHEMBL1201862, “PubChem BioAssay data set” (2004)
